Laboratory results published in patent publication US20170362609A1, “[…] NANOPARTICLES FOR CODELIVERY OF WATER-INSOLUBLE SMALL MOLECULES AND RNAi” (Massachusetts Institute of Technology, priority 2016, published 2017).

Key:
5′-GMP = 5′-GMP binding with platinum species by 1HNMR
Experimental: The binding kinetics of 5′-GMP to each platinum species were determined by measuring the relative amounts of free and Pt-bound 5′-GMP at each time point, integrating the ratio of the ^1HNMR peaks at 8.5 ppm to 8.09 ppm.

BCL-2 siRNA [1] = assay: siRNA binding with platinum species by MALDI-TOF-MS; settings: 10-fold excess of platinum
Experimental: The reaction mixture was placed in a 37° C. incubator and 10 μL of sample were removed at various time points to obtain MALDI-TOF-MS spectra (positive model).

BCL-2 siRNA [2] = assay: Double-stranded siRNA binding with platinum species by AAS; settings: by 3 h of incubation
Experimental: A double-stranded RNA (sense: […]-ATT; antisense: […]-[…]) was mixed with OxaPt(II) at a molar ratio of 1:10 in RNAase free water (RNA final concentration: 5 μM; Pt final concentration at 50 μM; total volume of 100 μL). […] The RNA was then isolated using a centrifugation separation device (molecular cut-off 3000 Da, spun at 10,000 rpm; Nanosep®3k, Pall Corporation, USA). Five wash cycles with RNAase free water (5×100 μL) then ensued. An aliquot of 2 μL from each sample was obtained for optical density (OD) measurements in order to quantify the concentration of RNA in the original sample, using a NanoDrop reader. The remainder of each sample was diluted in 3% HNO3 for Pt content measurement via AAS. The experiments were performed in triplicate and data are presented such that the concentration of Pt-RNA adducts at each time point are expressed as “μmol Pt/μmol RNA”. Analogous methods were employed to obtain similar values for the numbers of Pt-RNA adducts formed by the reaction of siRNA with OxaPt(IV), CisPt(II) or CisPt(IV) at similar time points.
MALDI/TOF MS was used to ascertain the kinetics of platinum-RNA adduct formation using BCL-2 siRNA that was incubated with a 10-fold excess of various platinum(II) or platinum(IV) species. […]

MCF-7 cells [3] = assay: Intracellular platinum uptake; format: cell-based
Experimental: FIG. 19A is a bar graph showing platinum uptake (μg Pt/cell) for various compositions. […] Experiments were performed in triplicate. […] IC50 values were derived from three independent experiments each with four technical replicates per condition.
MCF-7 cells were seeded in 12-well plates at a density of 10^5 cells per well and incubated overnight in 1 mL of DMEM containing 10% FBS. […]

MCF-7 cells [4] = assay: Pt-DNA adducts in cells; format: cell-based; settings: 24 h after treatment
Experimental: FIG. 19B is a bar graph showing the total number of Pt-DNA adducts (pg Pt/μg DNA) as assessed after 24 h of incubation with each treatment group, as defined in the description of FIG. 19A. DNA was isolated after cellular lysis and the content of DNA-bound Pt was determined by ICP-MS. Experiments were performed in triplicate. […] IC50 values were derived from three independent experiments each with four technical replicates per condition. […] In all cases, significance is defined as *p<0.05, **p<0.01, and ***p<0.001.
Atomic absorption spectroscopy (generation 8.0, Perkin Elmer) was used to study the kinetics of siRNA platination and to determine the platinum content in all micellar formulations. Inductively coupled plasma mass spectrometry (ICP-MS, Xseries II, Thermo scientific, USA) was used for quantitative determination of trace levels of platinum in cancer cells and to quantify Pt-DNA adduct formation. Sizes and distributions of micelles were determined by dynamic light scattering (DLS) with a vertically polarized He—Ne laser (DAWN EOS, Wyatt Technology, USA). The size and morphologies of the micelles very visualized using a JEOL JEM-1011 electron microscope. Particle size and zeta potential measurements were conducted on a Malvern Zetasizer Nano ZS90. Micelles were prepared by directly dissolving various modified triblock copolymers in water at 0.5 mg/mL.

MCF-7 cells [5] = assay: MTT cytotoxicity; format: cell-based; settings: platinum concentration, siRNA 100 nM
Experimental: In vitro Cytotoxicity Measurements. MCF-7 cells were seeded in 96-well plates at a density of 1×10^4 cells/well. 100 μL of DMEM supplemented with 10% FBS were added to each well and the cells were incubated at 37° C. for 24 h. […] All experiments were conducted in triplicate.

OVCAR4 cells = assay: MTT cytotoxicity; format: cell-based; settings: platinum concentration
A2780 cells = assay: MTT cytotoxicity; format: cell-based; settings: platinum concentration
A2780DDP cells = assay: MTT cytotoxicity; format: cell-based; settings: platinum concentration

SMILES	formation of Pt(NH3)2(5′-GMP)2 adducts (5′-GMP; data not shown)	time at which Pt-siRNA adducts could be detected (BCL-2 siRNA [1])	DACHPt(5′-GMP)2 adducts, share of the 5′-GMP pool (5′-GMP; 30 m incubation, 10 mM 5′-GMP, 5 mM Pt, 37° C.)	DACHPt(5′-GMP)2 adducts, share of the total 5′-GMP pool (5′-GMP; over the first 6 h, 10 mM 5′-GMP, 5 mM Pt, 37° C.) [%]	siRNA transcripts platinated (BCL-2 siRNA [2]) [%]	Platinum uptake 1 h (MCF-7 cells [3]; 1 h)	Platinum uptake 4 h (MCF-7 cells [3]; 4 h)	Pt-DNA adducts After 24 h (MCF-7 cells [4]) [ng Pt/μg DNA]	IC50 (MCF-7 cells [5]) [µM]	IC50 (OVCAR4 cells) [µM]	IC50 (A2780 cells) [nM]	IC50 (A2780DDP cells) [µM]
N.N.[Cl][Pt][Cl] [CisPt(II), cisplatin]	Similarly rapid formation and time dependent increases	≤ 30 m										
O=C1[O][Pt]2([NH][C@@H]3CCCC[C@H]3[NH]2)[O]C1=O [OxaPt(II), Oxaliplatin]		1 h	approximately 10%	> 40	> 50	369 ± 24 pg Pt/cell (×10^−4)	535 ± 16 pg Pt/cell (×10^−4)	41.10 ± 9.84	23.1 ± 0.25	15.5 ± 0.5	2900 ± 280	18.8 ± 0.99
